Entries after “also recorded” stand apart in the source; their conditions may differ.

Experimental findings from US20220362174A1, “Use of R-enantiomer Beta2-agonists for prevent and treatment of pulmonary inflammation and inflammatory remodeling for reduced adverse effects” (priority 2019, published 2022) are described below.

Experiment [1] deals with OVA-sensitized/OVA-challenged mice. The experiment in a line: Airway responsiveness to methacholine by whole-body plethysmography (Penh) in OVA sensitized/challenged asthma model. Format: in vivo. The conditions noted are these: for airway bronchoconstriction/hyperactivity (Penh) in response to increased doses of Mch: Mch 2, 10, 20 mg/mL aerosol, rac-ter at double dose of R-ter. Here is the method: (§1) OVA sensitized/challenged asthma model Mice were sensitized and challenged with ovalbumin (OVA) or normal saline. Briefly, mice were sensitized by intraperitoneal (i.p.) injection of 0.2 mL of 2% aluminum hydroxide (ALUM) gel containing 10 μg of OVA antigen on days 0 and 14. On days 21, 22 and 23, the mice were challenged with 1% OVA in saline (0.01 g/mL) for 20 min via. a nebulizer (PART Turbo boy). On day 26, a 20 min nebulized OVA challenge with 5% OVA in saline (0.05 g/mL) was conducted. The control group received 0.2 mL of saline with 2% ALUM administered intraperitoneally on days 0 and 14 before receiving 20 min nebulized normal saline without OVA on days 21, 22, 23 and 26.
In vivo airway responsiveness to methacholine (Mch) was assessed on day 28 in conscious, freely moving, spontaneously breathing mice by a whole-body plethysmography (Buxco Electronics Inc.). Mice were challenged with aerosolized saline or increasing concentrations of Mch (2, 10, 20 mg/mL) administered by an ultrasonic nebulizer for 2 min. Before Mch challenge, a 20 μL drug aerosol or saline was given to the mice because of the short-acting bronchodilating effect of terbutaline. The degree of bronchoconstriction was expressed as enhanced pause (Penh), a calculated dimensionless value that correlates with measurement of airway resistance, impedance, and intrapleural pressure. Penh values were recorded and averaged for 4 min after each nebulization challenge.

Experiment [2] shares this test system. The experiment in a line: Whole blood analysis and eosinophils counts in BAL fluid. The format is in vivo. The conditions noted are these: for per cent of eosinophil counts in blood and BALF: OVA asthma mice after repeated inhalation. As to the method: as §1
After Methacholine challenge, mice were anesthetized, blood was collected for hematology analysis. Part of the collected blood was transferred to a heparinized Eppendorf tube, gently mixed and centrifuged under 845×g at 4° C. for 10 min to isolate plasma specimen for further analysis. Broncho alveolar lavage (BAL) was performed on the right lung using 0.3 mL of phosphate buffered saline (PBS) for four times. The saline was instilled into the lungs and allowed to equilibrate for 30 s before recovery, after centrifugation supernatants were stored at −80° C. for further cytokines analysis while cell pellet was suspended in 0.5 ml PBS and the eosinophils counts were performed using Wright's stain. Then all the organs (liver, right lung lobe, spleen, kidneys, heart, brain) were excised surgically and washed totally with ice-cold PBS to clear the blood and then blotted dry with filter paper. These tissue specimens were then accurately weighted and stored at −80° C. for detecting the drug distribution by LC-MS/MS. White blood cell (WBC) counts and differential WBC counts were analyzed using a ProCyte Dx Hematology Analyzer (IDEXX Laboratories) in 4 h after blood collection.

Experiment [3] shares this test system. The experiment is described as follows: Lung histopathology (H&E, PAS, Masson) after R-, S-, rac-terbutaline. The format is in vivo. Particulars: for PAS stain of lung tissues: inflammatory and histopathological changes, collagen deposition: Example 3, vs model; for wall thickness of vessels / inflammatory remodeling processes: repeated inhalation, OVA mice; for PAS and Masson staining: subepithelial matrix glycoproteins, goblet cell hyperplasia, collagen deposition: vs OVA group; for smooth muscle hypertrophy, thickness of bronchial and vascular smooth muscle layer: vs OVA-treated mice. Here is the method:
as §1
Left lung tissue was obtained for histopathology and fixed in 10% formalin for 24 h, followed by paraffin-embedded and then were sectioned at 4 μm for routine staining with hematoxylin and eosin (H&E, Solarbio, Beijing, China), or with periodic acid-Schiff (PAS, Solarbio, Beijing, China), or submitted to Masson's trichrome staining (Baso, Zhuhai, China). Images of the stained lung sections were obtained by an Axisplus image-capturing system (Zeiss, Germany) and then a minimum of 3 bronchi (luminal diameter, 150-500 μm) were analyzed per mice for various parameters using an image analyzing computer system (IPP) by pathologists blinded to grouping. Histological score, airway smooth muscle thickness, PAS score (goblet cells hyperplasia), and collagen deposition were evaluated by a semi-quantitative scoring method.

For another experiment, the system named is OVA-sIgE. The experiment is described as follows: Measurement of OVA-sIgE in plasma (ELISA). Format: in vivo, mice. The conditions noted are these: vs OVA group. As to the method:
as §1
OVA-sIgE in plasma was measured using an enzyme-linked immunosorbent assay (ELISA) kit following the manufacturer's specification.

The test system of experiment [4] is Th2 cytokines (IL-4, IL-5, IL-13). The experiment in a line: Analysis of cytokine levels in BAL fluid (ELISA). The format is in vivo, mice. Particulars: for cytokines released (FIG. 3): pretreatment for 7 consecutive days; for IL-4 release in BALF / IL-13 release in BALF / IL-5 in BALF: vs OVA group. As to the method:
as §1
BAL fluid samples were analyzed for the concentrations of mouse IL-4 and IL-5 using commercial ELISA kits according to the manufacturers instructions (R&D Systems, Minneapolis, Minn.). IL-13 was assayed in BAL fluid with a mouse IL-13 immunoassay kit (Abeam, Cambridge, UK) following the manufacturer's protocol.

Another experiment relates to NF-κB. The experiment is described as follows: mRNA of NF-κB in the lung by quantitative real-time PCR. Particulars: vs OVA group. Format: in vivo, mice. Here is the method:
as §1
The level of mRNA of NF-κB in the lung were analyzed by quantitative real-time PCR analysis. The total RNA was extracted from lung tissue using RNaEX™ Total RNA Isolation Kit (Generay Biotech). The quality and quantity of RNA samples were assessed by NanoDrop ND-2000c spectrophotometer (Thermo Fisher Scientific, Inc., Wilmington, Del.). Total RNA (1 μg) was reverse transcribed into cDNA using cDNA Reverse Transcription Kit (Vazyme Biotech, Nanjing, China) according to the manufacturer's instruction. Real-time PCR reactions were performed using the 7500 real-time-PCR system (Applied Biosystems, Foster City, Calif., USA) with AceQ qPCR SYBR Green Master Mix (Vazyme Biotech, Nanjing, China). […]

In the next experiment the test system is p38 MAPK. The experiment in a line: Western blot of lung tissue: p38 MAPK phosphorylation. Format: in vivo, mice. The conditions noted are these: vs OVA group. Here is the method:
as §1
(§2) Total protein from lung tissue was extracted according to the guidelines of manufacturer (Beyotime, China) and the concentrations were determined by BCA assay (Pierce). Primary antibodies against p38 MAPK (CST #8690), p-p38 MAPK (Thr180/Tyr182, CST #4511), NF-κB p65 (GeneTex #GTX102090), p-NF-κB p65 (S536, CST #3033) and GAPDH (Affinity #AF7021) as a standard were purchased and used.

In the next experiment the test system is NF-κB p65. The experiment is described as follows: Western blot of lung tissue: NF-κB p65 phosphorylation. The format is in vivo, mice. Here is the method: as §1, §2
In the next experiment the test system is NF-κB and MARK pathways. The experiment is described as follows: NF-κB and MARK pathways, cytokines and ROS in LPS sepsis. The text has this: LPS interacts with pathogen recognition receptors such as TLRs would also activate NF-κB and MARK pathways, which would further lead to an over-production of cytokines. […] The “cytokine storm” in sepsis involves in excessive release of INFs, IL-1B, IL-2,4,6,10,12, TNFa and MCP etc.
In sepsis, there are also over productions of chemokines such as ROS. […] This invention disclosed the similar effects of other RS-racemic, S-enantiomer or R-enantiomer beta2 agonists including: salbutamol, bambuterol, vilanterol, clenterol, salmeterol, formoterol, trantinterol and Indacaterol and other β2 agonists.

In another experiment the test system is BALB/c mice. The experiment in a line: Survival study after LPS challenge (sepsis). Format: in vivo. Here is the method: Treatment were given intraperitoneally for 3 consecutive days. One hour after the 3rd day treatments, LPS (15 mg/kg) was administered intraperitoneally. The animals were monitored. Survival rate was then recorded every 12 h for 144 hours.

[5] abbreviates: 0.5 mg/kg + LPS, Saline + LPS 90.9.

Consider `CC(C)(C)NC[C@@H](O)c1cc(O)cc(O)c1` [S-terbutaline], for which the “airway bronchoconstriction/hyperactivity (Penh) in response to increased doses of Mch” value in experiment [1] is recorded as “further exacerbation of airway hyperactivity”. In addition, the lung compliance entry in [1] (OVA induced asthma mice, baseline) was “reduced lung compliances”. Also, in [2], the “per cent of eosinophil counts in blood and BALF” value is on record as “significantly increased; also recorded: significantly higher; also recorded: the highest”. In experiment [3], the “PAS stain of lung tissues: inflammatory and histopathological changes, collagen deposition” value was “further enhanced; also recorded: further worsened”; the “wall thickness of vessels / inflammatory remodeling processes” value was “further increase of wall thickness of vessels”; the “PAS and Masson staining: subepithelial matrix glycoproteins, goblet cell hyperplasia, collagen deposition” value is “further exacerbated”; the “smooth muscle hypertrophy, thickness of bronchial and vascular smooth muscle layer” value is reported as “further enhanced”. The “OVA-sIgE level in plasma” value in the experiment on OVA-sIgE is recorded as “further increase”. In experiment [4], the “cytokines released (FIG. 3)” value is reported as “did the opposite”, the “IL-4 release in BALF” value is reported as “further increase” and the “IL-13 release in BALF” value is reported as “further increase”. In [4] (listed as S-ter), the “IL-4 release in BALF” value is “further increased” and the “IL-13 release in BALF” value is listed as “further increased”. Also, in the experiment with NF-κB, the “NF-κB expression (mRNA transcript) in lung” value is on record as “further enhanced”. For the same compound, in the experiment on p38 MAPK, the “p38 MAPK phosphorylation (ratio of phosphorylated to total p38 MAPK)” value was “enhanced”. Besides, in the experiment on p38 MAPK (listed as S-ter), the “p38 MAPK phosphorylation (ratio of phosphorylated to total p38 MAPK)” value was “further increased”. The “ratio of phosphorylated to total p65 NF-κB” value in the experiment with NF-κB p65 is “enhanced”. Moreover, the “NF-κB and MARK pathways activated by LPS (expression or phosphorylation)” value in the experiment on NF-κB and MARK pathways (LPS sepsis) was “further enhanced”.
Take `CC(C)(C)NC[C@H](O)c1cc(O)cc(O)c1` [R-terbutaline]: in [1], the “airway bronchoconstriction/hyperactivity (Penh) in response to increased doses of Mch” value is reported as “attenuated significantly”. In experiment [1] (exposure to saline, after 7 days inhalation pretreatment, OVA group 0.80±0.12, Control group 0.55±0.08, rac-terbutaline at double molar amount), the “baseline Penh value (baseline airway reactivity)” value is on record as “significantly reduce”. Further, in [2] (OVA asthma mice), the “influx of eosinophils into BALF” value is “significantly inhibited”. In addition, in experiment [2], the “per cent of eosinophil counts in blood and BALF” value is given as “significantly reduced”. Moreover, in experiment [3], the “PAS stain of lung tissues: inflammatory and histopathological changes, collagen deposition” value is reported as “significantly ameliorate; also recorded: significantly alleviated or improved”; the “wall thickness of vessels / inflammatory remodeling processes” value is “significantly diminished”; the “PAS and Masson staining: subepithelial matrix glycoproteins, goblet cell hyperplasia, collagen deposition” value is “reversed and recovered toward normal”; the “smooth muscle hypertrophy, thickness of bronchial and vascular smooth muscle layer” value was “suppressed”. The “degree of inflammatory cell infiltration (H&E, histological score)” value in [3] (rac-terbutaline at double dose) is “ameliorated”. Further, the “OVA-sIgE level in plasma” value in the experiment with OVA-sIgE is given as “markedly inhibited”. In experiment [4], the “cytokines released (FIG. 3)” value is recorded as “significantly inhibited the release” and the “IL-5 in BALF” value was “significantly inhibited”. Also, the “IL-5 in BALF” value in experiment [4] (listed as R-ter) is “significantly reduced”. Besides, the “NF-κB expression (mRNA transcript) in lung” value with NF-κB is listed as “effectively inhibited”. Besides, in the experiment with p38 MAPK, the “p38 MAPK phosphorylation (ratio of phosphorylated to total p38 MAPK)” value is “decreased”. In the experiment with p38 MAPK (listed as R-ter), the “p38 MAPK phosphorylation (ratio of phosphorylated to total p38 MAPK)” value is recorded as “markedly suppressed”. Besides, the “ratio of phosphorylated to total p65 NF-κB” value in the experiment on NF-κB p65 is “decreased”. Further, the “Percent of death after LPS challenges, 12 h” value in the experiment with BALB/c mice (0.5 mg/kg + LPS, Saline + LPS 0) was found to be 0%. Further, the “Percent of death after LPS challenges, 24 h” value with BALB/c mice (0.5 mg/kg + LPS, Saline + LPS 36.4) amounted to 18.2%. Further, in the experiment on BALB/c mice (0.5 mg/kg + LPS, Saline + LPS 72.7), the “Percent of death after LPS challenges, 36 h” value is 27.3%. Besides, in the experiment on BALB/c mice (setting [5]), the “Percent of death after LPS challenges, 48 h” value was 36.4%; the “Percent of death after LPS challenges, 72 h” value amounted to 36.4%; the “Percent of death after LPS challenges, 144 h” value turned out to be 36.4%. The “rate of mortality/death after LPS challenge (in words)” value in the experiment on BALB/c mice (in comparison of LPS challenged group without pretreatment (mortality 90.9%)) was “greatly reduced or even diminished”. Further, in the experiment with NF-κB and MARK pathways (LPS sepsis), the “NF-κB and MARK pathways activated by LPS (expression or phosphorylation)” value is “significantly inhibited”; the “over production of inducible NO (iNO) and another ROS” value was “significantly prevent and inhibit”. The “production or release of cytokines (cytokine storm)” value in the experiment with NF-κB and MARK pathways (sepsis) is listed as “significantly reduced”.
